Source: patent US20260263555A1, “ANNEXIN A1 DELAYED DOSING” (Reso Ther Pharma A/S, priority 2023, published 2026)
No end group written: not given here.

Test system: rat model of acute myocardial infarction
Test: Peptide 1 treatment for 1 day versus 3 days, cardiac function by transthoracic echocardiography in a rat model of acute myocardial infarction
Assay type: in vivo, male Sprague Dawley rats
Experimental: Myocardial infarction was induced in male Sprague Dawley rats. On day 0 rats were anaesthetized with a mixture of 2 to 2.2% isoflurane USP (Abbot Laboratories, Montreal Canada) in oxygen, and placed on a heating pad (set at 37° C.) to maintain body temperature. The animals were intubated and immediately ventilated with a mixture of 2 to 2.2% isoflurane USP (Abbot Laboratories, Montreal Canada) in oxygen by means of a positive-pressure rodent respirator (CWE model SAR-830/P) set at ≈10 mL/kg bodyweight at a frequency of 70-80 strokes/min. The pericardium was opened to expose the heart and a 5-0 wax coated braided silk suture (Sofsilk™) was placed around the left anterior descending (LAD) coronary artery, approximately 2-3 mm below the left atrium. The suture was briefly snared to verify the size and location of myocardial ischemia based on colour change and was then tied to produce a large anterolateral myocardial infarction (affecting around 45% of the LV). The suture was kept in place for 30 minutes (30 minutes of ischemia) followed by reperfusion. A group of rats receiving sham procedure was also included. […] Fourteen days after ischemia, cardiac function was assessed by transthoracic echocardiography (echocardiograph model Q9, ChisonMedical Imaging Co. connected to a Chison 12.0 MHz probe).

AMVSEFLKQAWFIENEEQEYVQTLKSSKGGPGSAVSPYPTFNPSSDV (AMVSEFLKQAWFIENEEQEYVQTLKSSKGGPGSAVSPYPTFNPSSDV-NH2; ends and bridges not checked) [Peptide 1]
improvement of cardiac output compared to vehicle treatment (14 days post ischemia, tail vein, three daily dosages (0, 3, 6 h post reperfusion) for 1 day or 3 days, 10, 30 or 100 ug/kg): 20-30% | long-term cardiac function (at least three dosages, echocardiography 14 days after ischemia, vs vehicle): significantly improves long-term cardiac function
